Inhibition data for 98 molecules are collected here from the Kinase Knowledgebase extract (Sharma et al. 2016).

The term inhibition denotes the share of the control response that was lost under treatment. Lower therefore signals a weak effect.

The target of this assay is CDK2 (UniProt P24941). Briefly: Enzyme Assay. Particulars: concentration not given here.
Take `CC(C)c1cc(C(N)=O)c(NC(=O)c2cccc(C#N)c2)s1`: the inhibition is 100%.

Molecule `CC(=O)Nc1sc2c(c1C(N)=O)CCCC2` showed an inhibition of 100%.

On to `CC(=O)NCCCCCC(=O)Nc1sc(C(C)c2ccccc2)cc1C(N)=O` (stereo not drawn), for which the inhibition was 100%.

`Cc1sc(NC(=O)c2ccc(C(F)(F)F)cc2)c(C(N)=O)c1C` registered an inhibition of 100%.

The molecule `COc1cccc(O)c1C(=O)Nc1sc(Cc2ccccc2)cc1C(N)=O` displayed an inhibition of 100%.

The molecule `CC(c1ccccc1)c1cc(C(N)=O)c(NC(=O)Cc2cn(C)cn2)s1` (stereo not drawn) came in with an inhibition of 100%.

`CC(C)c1cc(C(N)=O)c(NC(=O)C(C)c2ccccc2)s1` (stereo not drawn) showed an inhibition of 100%.

Turning to `Cc1csc(NC(=O)c2cccc(S(C)(=O)=O)c2)c1C(N)=O`, the inhibition turned out to be 100%.

As for `COc1ccccc1OCC(=O)Nc1sc(C)c(C)c1C(N)=O`, the inhibition is 100%.

`CC(C)c1cc(C(N)=O)c(NC(=O)CCc2cccnc2)s1` had an inhibition of 100%.

In turn, `CN(C)c1ccccc1C(=O)Nc1sc(Cc2ccccc2)cc1C(N)=O` registered an inhibition of 100%.

`NC(=O)c1cc(Cc2ccccc2)sc1NC(=O)c1n[nH]c2ccccc12` displayed an inhibition of 100%.

With `NC(=O)c1c(NC(=O)C2CCCC2)sc2c1CCCC2`, the inhibition worked out at 100%.

For the molecule `NC(=O)c1cc(Cc2ccccc2)sc1NC(=O)c1ccc2c(c1)C=NC2`, the inhibition came out at 100%.

`NC(=O)c1cc(Cc2ccccc2)sc1NC(=O)CCN1C(=O)C=CC1=O` yielded an inhibition of 100%.

On to `Cc1ccc(C(=O)Nc2sc(C(C)C)cc2C(N)=O)c(C)c1`, for which the inhibition turned out to be 100%.

As to `Cc1sc(NC(=O)CCCC(=O)c2ccccc2)c(C(N)=O)c1C`, the inhibition is 100%.

Regarding `NC(=O)c1c(NC(=O)c2cccnc2)sc2c1CCCC2`, the inhibition stood at 100%.

With `CCCC(Nc1sc(Cc2ccccc2)cc1C(N)=O)C(=O)NC(N)=O` (stereo not drawn), the inhibition amounted to 100%.

`NC(=O)c1cc(-c2ccccc2)sc1NC(=O)CC1CCCCCC1` displayed an inhibition of 100%.

Consider `Cc1cccc(CC(=O)Nc2sc(C(C)C)cc2C(N)=O)c1`, for which the inhibition was determined as 100%.

`CC1NC(=O)NC1CCCCCC(=O)Nc1sc2c(c1C(N)=O)CCN(C)C2` (stereo not drawn) registered an inhibition of 100%.

Molecule `Cc1c(O)cccc1C(=O)Nc1sc(-c2ccccc2)cc1C(N)=O` had an inhibition of 100%.

The molecule `CC(C)c1cc(C(N)=O)c(NC(=O)CCc2ccccc2)s1` came in with an inhibition of 100%.

On to `CC(=O)Nc1ccc(Br)c(C(=O)Nc2sc3c(c2C(N)=O)CCN(C)C3)c1`, for which the inhibition was 100%.

On to `CN1CCc2c(sc(NC(=O)c3cc(O)c4ccc(Br)cc4n3)c2C(N)=O)C1`, for which the inhibition came to 100%.

As for `CC(=O)CC(=O)N(CC(N)=O)c1sc(-c2ccccc2)cc1C(N)=O`, the inhibition was 100%.

Molecule `NC(=O)c1cc(-c2ccccc2)sc1NC(=O)c1ccccc1Cl` displayed an inhibition of 100%.

`CN1CCc2c(sc(NC(=O)CCS(=O)(=O)c3ccccc3)c2C(N)=O)C1` gave an inhibition of 100%.

Turning to `CC(c1ccccc1)c1cc(C(N)=O)c(NC(=O)c2ccnc3ccccc23)s1` (stereo not drawn), the inhibition was 100%.

In turn, `CCCN(CCC)C(=O)[C@H](C)Nc1sc(C(C)c2ccccc2)cc1C(N)=O` (stereo partly drawn) returned an inhibition of 100%.

`Cc1sc(NC(=O)c2nc3ccccc3nc2O)c(C(N)=O)c1C` showed an inhibition of 100%.

Molecule `COc1ccc2[nH]c(C)c(CC(=O)Nc3sc4c(c3C(N)=O)CCN(C)C4)c2c1` gave an inhibition of 100%.

Take `Cc1csc(NC(=O)CCn2ccc3ccccc32)c1C(N)=O`: the inhibition is 100%.

As for `NC(=O)c1cc(-c2ccccc2)sc1NC(=O)CCN1CCCCC1`, the inhibition was 100%.

Take `NC(=O)c1c(NC(=O)c2ccccn2)sc2c1CCCC2`: the inhibition stood at 100%.

In turn, `CN1CCc2c(sc(NC(=O)/C=C\C(=O)Nc3ccc(Cl)cc3)c2C(N)=O)C1` displayed an inhibition of 100%.

`Cc1cccc(C(=O)Nc2sc(C(C)C)cc2C(N)=O)c1C`: the inhibition worked out at 100%.

`COc1cc(C(=O)Nc2sc(Cc3ccccc3)cc2C(N)=O)ccc1C` returned an inhibition of 100%.

For `CN1CCc2c(sc(NC(=O)C(Cc3c[nH]cn3)NC(=O)c3ccccc3)c2C(N)=O)C1` (stereo not drawn), the inhibition came to 100%.

For `Cc1cccc(C)c1C(=O)Nc1sc(C(C)C)cc1C(N)=O`, the inhibition was 100%.

For `COc1ccccc1C(=O)Nc1sc(-c2ccccc2)cc1C(N)=O`, the inhibition was determined as 100%.

Regarding `CN(C)c1cccc(C(=O)Nc2sc(Cc3ccccc3)cc2C(N)=O)c1`, the inhibition is 100%.

Take `COc1ccc(C(=O)Nc2sc(C)c(C)c2C(N)=O)cc1OC`: the inhibition came out at 100%.

As to `CC(=O)Nc1ccc(C(=O)Nc2sc(C(C)c3ccccc3)cc2C(N)=O)cc1` (stereo not drawn), the inhibition stood at 100%.

`NC(=O)c1cc(Cc2ccccc2)sc1NC(=O)c1ccc2[nH]cnc2c1` returned an inhibition of 100%.

`NC(=O)c1cc(Cc2ccccc2)sc1NC(=O)c1ccc2c(c1)OCO2` yielded an inhibition of 100%.

On to `COc1cc(C(=O)Nc2sc(Cc3ccccc3)cc2C(N)=O)ccc1O`, for which the inhibition is 100%.

The molecule `NC(=O)c1c(NC(=O)CCCl)sc2c1CCCC2` yielded an inhibition of 100%.

As to `CN(C)CC(=O)Nc1sc2c(c1C(N)=O)CCCC2`, the inhibition worked out at 100%.

`NC(=O)c1cc(-c2ccccc2)sc1NC(=O)c1cccnc1Cl`: the inhibition was determined as 100%.

`Cc1csc(NC(=O)CCNC(=O)c2ccccc2)c1C(N)=O` registered an inhibition of 100%.

Take `CC(C)c1cc(C(N)=O)c(NC(=O)C2CNC(=O)N2)s1` (stereo not drawn): the inhibition came to 100%.

`NC(=O)c1cc(Cc2ccccc2)sc1NC(=O)/C=C\c1ccc(O)cc1` had an inhibition of 100%.

Consider `CC(c1ccccc1)c1cc(C(N)=O)c(NC(=O)c2ccc(Cl)cc2O)s1` (stereo not drawn), for which the inhibition amounted to 100%.

`NC(=O)c1c(NC(=O)c2cn[nH]c2)sc2c1CCCC2` came in with an inhibition of 100%.

`Cc1csc(NC(=O)CS(=O)(=O)c2ccccc2)c1C(N)=O` returned an inhibition of 100%.

As to `COc1ccc(OC)c(/C=C\C(=O)Nc2scc(C)c2C(N)=O)c1`, the inhibition was determined as 100%.

Molecule `Cc1sc(NC(=O)c2cccc(Cl)c2Cl)c(C(N)=O)c1C` registered an inhibition of 100%.

The molecule `CC(=O)NC(=O)C(Nc1sc(-c2ccccc2)cc1C(N)=O)C(C)C` (stereo not drawn) yielded an inhibition of 100%.

`CN1CCc2c(sc(NC(=O)CCc3nc4c([nH]3)c(=O)n(C)c(=O)n4C)c2C(N)=O)C1` had an inhibition of 100%.

With `Cc1sc(NC(=O)Cc2ccc3c(c2)OCO3)c(C(N)=O)c1C`, the inhibition worked out at 100%.

Turning to `NC(=O)c1c(NC(=O)C2CC2)sc2c1CCCC2`, the inhibition was 100%.

Turning to `Cc1csc(NC(=O)CCc2nc3ccccc3[nH]2)c1C(N)=O`, the inhibition is 100%.

`CC(c1ccccc1)c1cc(C(N)=O)c(NC(=O)c2cc3ccccc3n2C)s1` (stereo not drawn) returned an inhibition of 100%.

`CN1CCc2c(sc(NC(=O)c3ccc(-c4ccc(Cl)cc4)o3)c2C(N)=O)C1` showed an inhibition of 100%.

Regarding `Cc1sc(NC(=O)c2c(Cl)cccc2Cl)c(C(N)=O)c1C`, the inhibition was found to be 100%.

Consider `CN1CCc2c(sc(NC(=O)c3cc(O)c4cc(Cl)ccc4n3)c2C(N)=O)C1`, for which the inhibition was 100%.

`NC(=O)/C=C\C(=O)N(C(N)=O)c1sc(Cc2ccccc2)cc1C(N)=O` showed an inhibition of 100%.

On to `Cc1ccc(O)c(C(=O)Nc2sc(-c3ccccc3)cc2C(N)=O)c1`, for which the inhibition amounted to 100%.

`NC(=O)c1cc(-c2ccccc2)sc1NC(=O)C(F)c1ccccc1` (stereo not drawn) returned an inhibition of 100%.

On to `Cc1sc(NC(=O)c2ccccc2C(F)(F)F)c(C(N)=O)c1C`, for which the inhibition was found to be 100%.

`NC(=O)c1cc(-c2ccccc2)sc1NC(=O)c1ccc2cc[nH]c2c1` yielded an inhibition of 100%.

Molecule `Cc1sc(NC(=O)c2cc(=O)c3ccccc3o2)c(C(N)=O)c1C` gave an inhibition of 100%.

The molecule `CC(c1ccccc1)c1cc(C(N)=O)c(NC(=O)c2cccc3c2C(=O)N=N3)s1` (stereo not drawn) came in with an inhibition of 100%.

On to `Cc1ccc(S(=O)(=O)CC(=O)Nc2sc3c(c2C(N)=O)CCN(C)C3)cc1`, for which the inhibition stood at 100%.

On to `NC(=O)c1cc(-c2ccccc2)sc1NC(=O)Cc1ccc(F)cc1`, for which the inhibition came to 100%.

`Cc1cc(C(=O)Nc2sc(Cc3ccccc3)cc2C(N)=O)cc(C)c1O` returned an inhibition of 100%.

Molecule `NC(=O)c1ccccc1C(=O)Nc1sc(Cc2ccccc2)cc1C(N)=O` registered an inhibition of 100%.

Turning to `CC(c1ccccc1)c1cc(C(N)=O)c(NC(=O)c2cnnc3ccccc23)s1` (stereo not drawn), the inhibition amounted to 100%.

With `CCCN(C(=O)/C=C\C(N)=O)c1sc(-c2ccccc2)cc1C(N)=O`, the inhibition stood at 100%.

`Cc1csc(NC(=O)C2=COc3ccc(Cl)cc3C2)c1C(N)=O` registered an inhibition of 100%.

`NC(=O)c1cc(-c2ccccc2)sc1NC(=O)/C=C/c1cccs1`: the inhibition is 100%.

In turn, `Cc1sc(NC(=O)CNc2cccnc2)c(C(N)=O)c1C` came in with an inhibition of 100%.

Molecule `Cc1ccc(C)c(C(=O)Nc2sc(C(C)C)cc2C(N)=O)c1` yielded an inhibition of 100%.

With `NC(=O)c1c(NC(=O)c2ccc[nH]2)sc2c1CCCC2`, the inhibition amounted to 100%.

Molecule `NC(=O)c1cc(Cc2ccccc2)sc1-n1cnc2ncnc(C(=O)O)c21` displayed an inhibition of 100%.

In turn, `CC(C)c1cc(C(N)=O)c(NC(=O)c2ccc(C#N)cc2)s1` yielded an inhibition of 100%.

Regarding `Cc1ccccc1CC(=O)Nc1sc(C(C)C)cc1C(N)=O`, the inhibition amounted to 100%.

Take `Cc1csc(NC(=O)c2ccc(S(N)(=O)=O)cc2)c1C(N)=O`: the inhibition is 100%.

As to `CN1CCc2c(sc(NC(=O)c3ccc(I)cc3)c2C(N)=O)C1`, the inhibition stood at 100%.

The molecule `Cc1sc(NC(=O)CCC(=O)c2cccs2)c(C(N)=O)c1C` showed an inhibition of 100%.

Take `NC(=O)c1cc(Cc2ccccc2)sc1NC(=O)COCc1ccccc1`: the inhibition is 100%.

The molecule `CC(c1ccccc1)c1cc(C(N)=O)c(NC(=O)c2ccc3ncccc3c2)s1` (stereo not drawn) had an inhibition of 100%.

The molecule `CC(=O)N1CCC(O)C1C(=O)Nc1sc(C(C)c2ccccc2)cc1C(N)=O` (stereo not drawn) displayed an inhibition of 100%.

`C#CC(=O)N(c1ccccc1)c1sc(C(C)C)cc1C(N)=O` yielded an inhibition of 100%.

As to `COc1ccc2c(c1)C(CC(=O)Nc1sc3c(c1C(N)=O)CCN(C)C3)C(=O)C2` (stereo not drawn), the inhibition was determined as 100%.

As to `Cc1cccc(C(=O)Nc2sc(-c3ccccc3)cc2C(N)=O)c1O`, the inhibition was 100%.
